Data published in patent US20120095055A1, “HEXAHYDROCYCLOPENTYL[f]INDAZOLE 5-HYDROXYMETHYL ETHANOLS AND DERIVATIVES THEREOF AS SELECTIVE GLUCOCORTICOID RECEPTOR MODULATORS” (Merck Sharp & Dohme, Corp., priority 2009, published 2012).

molecular target: T1, glucocorticoid receptor (GR) (Homo sapiens, UniProt P04150); experiment: GR Ligand Binding Assay (3H-dexamethasone displacement, HeLa cell lysate); conditions: 3H-DEX trace, DEX as reference, read-out: GR BIND Ki
T1 construct: endogenous in cells; host or cells: HeLa (ATCC) cell lysate supernatant
T1 sequence (P04150 1-777): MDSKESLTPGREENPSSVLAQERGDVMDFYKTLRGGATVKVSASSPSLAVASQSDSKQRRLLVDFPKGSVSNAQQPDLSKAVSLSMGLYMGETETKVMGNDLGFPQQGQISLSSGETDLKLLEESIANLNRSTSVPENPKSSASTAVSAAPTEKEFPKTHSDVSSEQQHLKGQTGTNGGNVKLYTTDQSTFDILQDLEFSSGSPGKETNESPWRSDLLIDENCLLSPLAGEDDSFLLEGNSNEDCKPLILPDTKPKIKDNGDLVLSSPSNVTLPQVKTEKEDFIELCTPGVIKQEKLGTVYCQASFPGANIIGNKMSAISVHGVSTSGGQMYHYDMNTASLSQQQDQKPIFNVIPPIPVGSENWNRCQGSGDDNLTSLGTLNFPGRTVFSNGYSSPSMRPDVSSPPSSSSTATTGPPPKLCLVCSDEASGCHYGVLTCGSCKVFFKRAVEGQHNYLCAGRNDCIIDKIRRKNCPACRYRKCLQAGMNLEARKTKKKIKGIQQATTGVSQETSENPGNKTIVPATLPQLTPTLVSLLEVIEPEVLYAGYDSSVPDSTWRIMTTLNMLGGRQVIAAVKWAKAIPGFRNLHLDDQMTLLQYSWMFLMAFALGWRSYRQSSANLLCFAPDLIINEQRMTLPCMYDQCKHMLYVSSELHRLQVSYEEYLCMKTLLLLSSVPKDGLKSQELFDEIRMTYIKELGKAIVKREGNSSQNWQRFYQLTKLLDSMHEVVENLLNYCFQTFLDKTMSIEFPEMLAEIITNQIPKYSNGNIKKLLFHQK
Experimental: Binding Buffer: TEGM (10 mM Tris-HCl, 1 mM EDTA, 10% glycerol, 1 mM beta-mecaptoethanol, 10 mM Sodium Molybdate, pH 7.2)
Dexmethasone-methyl-^3H, (DEX*); (Amersham cat# TRK645) Dexamethasone(DEX) (Sigma, cat# D1756):
Cells (Hall R. E., et al., European Journal of Cancer, 30A: 484-490 (1994)) HeLa (ATCC) cultured in RPMI 1640 (Gibco 11835-055) containing 20 mM Hepes, 4 mM L-glu, 10 ug/ml of human insulin (Sigma, I-0259), 10% FBS and 20 ug/ml of Gentamicin (Gibco#15710-072) are rinsed twice in PBS. Phenol red-free Trypsin-EDTA is diluted in the same PBS 1:10. The cell layers are rinsed with 1× Trypsin, extra Trypsin is poured out, and the cell layers are incubated at 37° C. for ˜2 min. The flask is tapped and checked for signs of cell detachment. Once the cells begin to slide off the flask, the complete media is added. The cells are counted at this point, then diluted to the appropriate concentration and split into flasks or dishes for further culturing (Usually 1:3 to 1:6 dilution).
When the cells are 70 to 85% confluent, they are detached as described above, and collected by centrifuging at 1000 g for 10 minutes at 4° C. The cell pellet is washed twice with TEGM (10 mM Tris-HCl, 1 mM EDTA, 10% glycerol, 1 mM beta-mercaptoethanol, 10 mM Sodium Molybdate, pH 7.2). After the final wash, the cells are resuspended in TEGM at a concentration of 10^7 cells/mL. The cell suspension is snap frozen in liquid nitrogen or ethanol/dry ice bath and transferred to −80° C. freezer on dry ice. Before setting up the binding assay, the frozen samples are left on ice-water to just thaw (˜1 hr). Then the samples are centrifuged at 12,500 g to 20,000 g for 30 min at 4° C. The supernatant is used to set-up assay right away. If using 50 μL of supernatant, the test compound can be prepared in 50 μL of the TEGM buffer.
1×TEGM buffer is prepared, and the isotope-containing assay mixture is prepared in the following order: EtOH (2% final concentration in reaction), ^3H-DEX (Amersham Biosciences) and 1×TEGM. [e.g. For 100 samples, 200 μL (100×2) of EtOH+4.25 μL of 1:10 ^3H—Dex stock+2300 μL (100×23) 1×TEGM]. The compound is serially diluted, e.g., if starting final conc. is 1 μM, and the compound is in 25 μL of solution, for duplicate samples, 75 μL of 4×1 μM solution is made and 3 μL of 100 μM is added to 72 μL of buffer, and 1:5 serial dilution.
25 μL, of 3H-DEX (6 nM) trace and 25 μL compound solution are first mixed together, followed by addition of 50 μL receptor solution. The reaction is gently mixed, spun briefly at about 200 rpm and incubated at 4° C. overnight. 100 μL of 50% HAP slurry is prepared and added to the incubated reaction which is then vortexed and incubated on ice for 5 to 10 minutes. The reaction mixture is vortexed twice more to resuspend HAP while incubating reaction. The samples in 96-well format are then washed in wash buffer using The FilterMate™ Universal Harvester plate washer (Packard). The washing process transfers HAP pellet containing ligand-bound expressed receptor to Unifilter-96 GF/B filter plate (Packard). The HAP pellet on the filter plate is incubated with 50 μL of MICROSCINT (Packard) scintillint for 30 minutes before being counted on the TopCount microscintillation counter (Packard). IC50s are calculated using DEX as a reference.

Row | Compound | Ki
1 | C[C@]12Cc3cnn(-c4ccc(F)cc4)c3C=C1CC[C@@]2(CO)CC(O)c1ccccn1 (single isomer, unassigned) [Example 1a] | 5.2 nM
2 | C[C@]12Cc3cnn(-c4ccc(F)cc4)c3C=C1CC[C@@]2(CO)CC(O)c1ccccn1 (single isomer, unassigned) [Example 1b] | 4 nM
3 | Cc1ccc(C(O)C[C@]2(CO)CCC3=Cc4c(cnn4-c4ccc(F)cc4)C[C@@]32C)cc1 (single isomer, unassigned) [Example 2a] | 2.2 nM
4 | Cc1ccc(C(O)C[C@]2(CO)CCC3=Cc4c(cnn4-c4ccc(F)cc4)C[C@@]32C)cc1 (single isomer, unassigned) [Example 2b] | 2.1 nM
5 | C[C@]12Cc3cnn(-c4ccc(F)cc4)c3C=C1CC[C@@]2(CO)CC(O)c1ncccc1F (single isomer, unassigned) [Example 10a] | 3.1 nM
6 | C[C@]12Cc3cnn(-c4ccc(F)cc4)c3C=C1CC[C@@]2(CO)CC1OC(=O)c2ccccc21 (single isomer, unassigned) [Example 12a] | 2.6 nM
7 | C[C@]12Cc3cnn(-c4ccc(F)cc4)c3C=C1CC[C@@]2(CO)CC(O)c1ccccc1 (single isomer, unassigned) [Example 13a] | 2.5 nM
8 | C[C@]12Cc3cnn(-c4ccc(F)cc4)c3C=C1CC[C@@]2(CO)CC(O)c1ccccc1 (single isomer, unassigned) [Example 13b] | 1.9 nM
9 | CC(C)C(O)C[C@]1(CO)CCC2=Cc3c(cnn3-c3ccc(F)cc3)C[C@@]21C (single isomer, unassigned) [Example 14a] | 6.4 nM
10 | CC(C)C(O)C[C@]1(CO)CCC2=Cc3c(cnn3-c3ccc(F)cc3)C[C@@]21C (single isomer, unassigned) [Example 14b] | 14.1 nM
11 | C[C@]12Cc3cnn(-c4ccc(F)cc4)c3C=C1CC[C@@]2(CO)CC(O)c1cccnc1 (single isomer, unassigned) [Example 15a] | 10 nM
12 | C[C@]12Cc3cnn(-c4ccc(F)cc4)c3C=C1CC[C@@]2(CO)CC(O)c1cccnc1 (single isomer, unassigned) [Example 15b] | 8.3 nM
13 | C[C@]12Cc3cnn(-c4ccc(F)cc4)c3C=C1CC[C@@]2(CO)CC(O)c1ccncc1 (single isomer, unassigned) [Example 17a] | 6.4 nM
14 | C[C@]12Cc3cnn(-c4ccc(F)cc4)c3C=C1CC[C@@]2(CO)CC(O)c1ccncc1 (single isomer, unassigned) [Example 17b] | 7.5 nM
15 | C[C@]12Cc3cnn(-c4ccc(F)cc4)c3C=C1CC[C@@]2(CO)CC(O)C1CCCCC1 (single isomer, unassigned) [Example 18b, 1-cyclohexyl-2-[(4αS)-1-(4-fluorophenyl)-5-(hydroxymethyl)-4α-methyl-1,4,4α,5,6,7-hexahydrocyclopenta[f]indazol-5-yl]ethanol] | 2.3 nM
16 | C[C@]12Cc3cnn(-c4cccc(F)c4)c3C=C1CC[C@@]2(CO)CC(O)c1ccccn1 (single isomer, unassigned) [Example 19a] | 3.7 nM
17 | C[C@]12Cc3cnn(-c4cccc(F)c4)c3C=C1CC[C@@]2(CO)CC(O)c1ccccn1 (single isomer, unassigned) [Example 19b] | 9 nM
18 | C[C@]12Cc3cnn(-c4ccc(F)cc4)c3C=C1CC[C@@]2(CO)CC(O)C1CC1 (single isomer, unassigned) [Example 20a, 1-cyclopropyl-2-[(4αS)-1-(4-fluorophenyl)-5-(hydroxymethyl)-4α-methyl-1,4,4α,5,6,7-hexahydrocyclopenta[f]indazol-5-yl]ethanol] | 22.6 nM
19 | C[C@]12Cc3cnn(-c4ccc(F)cc4)c3C=C1CC[C@@]2(CO)CC(O)C1CC1 (single isomer, unassigned) [Example 20b, 1-cyclopropyl-2-[(4αS)-1-(4-fluorophenyl)-5-(hydroxymethyl)-4α-methyl-1,4,4α,5,6,7-hexahydrocyclopenta[f]indazol-5-yl]ethanol] | 15.1 nM
20 | COc1cccnc1C(O)C[C@]1(CO)CCC2=Cc3c(cnn3-c3ccc(F)cc3)C[C@@]21C (single isomer, unassigned) [Example 21a] | 7.6 nM
21 | COc1cccnc1C(O)C[C@]1(CO)CCC2=Cc3c(cnn3-c3ccc(F)cc3)C[C@@]21C (single isomer, unassigned) [Example 21b] | 3.7 nM

Stronger by Ki, values ahead:

Row | Ki | Compound
22 | 0.9 nM | C[C@]12Cc3cnn(-c4ccc(F)cc4)c3C=C1CC[C@@]2(CO)CC(O)c1ccccc1Cl (single isomer, unassigned) [Example 3a]
23 | 0.9 nM | C[C@]12Cc3cnn(-c4ccc(F)cc4)c3C=C1CC[C@@]2(CO)CC(O)c1ccccc1Cl (single isomer, unassigned) [Example 3b]
24 | 1.4 nM | Cc1cccc(C(O)C[C@]2(CO)CCC3=Cc4c(cnn4-c4ccc(F)cc4)C[C@@]32C)c1 (single isomer, unassigned) [Example 5a]
25 | 0.9 nM | Cc1cccc(C(O)C[C@]2(CO)CCC3=Cc4c(cnn4-c4ccc(F)cc4)C[C@@]32C)c1 (single isomer, unassigned) [Example 5b]
26 | 1.1 nM | C[C@]12Cc3cnn(-c4ccc(F)cc4)c3C=C1CC[C@@]2(CO)CC(O)c1cc(F)cc(Cl)c1 (single isomer, unassigned) [Example 6a]
27 | 1.3 nM | C[C@]12Cc3cnn(-c4ccc(F)cc4)c3C=C1CC[C@@]2(CO)CC(O)c1cc(F)cc(Cl)c1 (single isomer, unassigned) [Example 6b]
28 | 0.6 nM | C[C@]12Cc3cnn(-c4ccc(F)cc4)c3C=C1CC[C@@]2(CO)CC(O)c1cccc(C(F)(F)F)c1 (single isomer, unassigned) [Example 7a]
29 | 0.9 nM | C[C@]12Cc3cnn(-c4ccc(F)cc4)c3C=C1CC[C@@]2(CO)CC(O)c1cccc(C(F)(F)F)c1 (single isomer, unassigned) [Example 7b]
30 | 1.8 nM | C[C@]12Cc3cnn(-c4ccc(F)cc4)c3C=C1CC[C@@]2(CO)CC(O)c1ncccc1F (single isomer, unassigned) [Example 10b]
31 | 1.5 nM | C[C@]12Cc3cnn(-c4ccc(F)cc4)c3C=C1CC[C@@]2(CO)CC1OC(=O)c2ccccc21 (single isomer, unassigned) [Example 12b]
32 | 1.7 nM | C[C@]12Cc3cnn(-c4ccc(F)cc4)c3C=C1CC[C@@]2(CO)CC(O)C1CCCCC1 (single isomer, unassigned) [Example 18a, 1-cyclohexyl-2-[(4αS)-1-(4-fluorophenyl)-5-(hydroxymethyl)-4α-methyl-1,4,4α,5,6,7-hexahydrocyclopenta[f]indazol-5-yl]ethanol]
